Measurements: publication PMC2233693 (The Journal of General Physiology, 2000)
Numbering of substitutions follows the chain as printed. Where two headings read alike, the source gives them in different places.

Assays:
[1] = molecular target: native olfactory CNG channels; conditions: cited from earlier work
[2] = molecular target: T1, E340G mutant bovine olfactory CNG channel (Bos taurus, UniProt Q03041, E340G); test: Blockage of macroscopic current by internal Ca2+, inside-out patches; type: biochemical; conditions: read-out: K i for internal Ca2+ blockage, +80 mV, 1 mM cGMP, average
T1 sequence (Q03041 1-663 E340G): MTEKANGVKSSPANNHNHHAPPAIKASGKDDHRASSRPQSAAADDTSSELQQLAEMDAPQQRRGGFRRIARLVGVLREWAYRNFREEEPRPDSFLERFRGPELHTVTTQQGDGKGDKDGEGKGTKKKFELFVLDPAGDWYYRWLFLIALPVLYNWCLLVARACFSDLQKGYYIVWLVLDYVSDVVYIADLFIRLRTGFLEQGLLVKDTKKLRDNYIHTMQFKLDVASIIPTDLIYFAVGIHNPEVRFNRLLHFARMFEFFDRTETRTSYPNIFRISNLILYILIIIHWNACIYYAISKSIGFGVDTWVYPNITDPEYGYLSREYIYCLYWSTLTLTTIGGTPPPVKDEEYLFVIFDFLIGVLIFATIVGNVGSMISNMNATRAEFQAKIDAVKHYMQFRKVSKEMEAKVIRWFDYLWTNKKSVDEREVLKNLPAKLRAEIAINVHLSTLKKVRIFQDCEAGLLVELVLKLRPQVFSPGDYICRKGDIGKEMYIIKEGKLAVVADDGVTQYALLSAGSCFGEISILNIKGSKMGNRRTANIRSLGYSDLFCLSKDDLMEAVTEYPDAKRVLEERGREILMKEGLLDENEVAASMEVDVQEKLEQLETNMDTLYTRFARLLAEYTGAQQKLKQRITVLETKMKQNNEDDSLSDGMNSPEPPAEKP

[3] = molecular target: T2, E340D mutant bovine olfactory CNG channel (Bos taurus, UniProt Q03041, E340D); type: biochemical; conditions: cGMP
T2 sequence (Q03041 1-663 E340D): T1 sequence (Q03041 1-663 E340G) with G340D

[4] = molecular target: T2, E340D mutant bovine olfactory CNG channel; type: biochemical
[5] = molecular target: T1, E340G mutant bovine olfactory CNG channel; type: biochemical
[6] = molecular target: T3, E340N mutant bovine olfactory CNG channel (Bos taurus, UniProt Q03041, E340N); type: biochemical; conditions: for P max (+80 mV) / P max (−80 mV): cGMP
T3 sequence (Q03041 1-663 E340N): T1 sequence (Q03041 1-663 E340G) with G340N

[7] = 3 μM cGMP, +80 mV, amplitude histogram, Fig. 3
[8] = 100 μM cGMP, +80 mV, amplitude histogram, Fig. 3
[9] = high level of current determined with respect to low level

In the case of `[Ca+2]` [Ca^2+], the Ki ([1]; read-out: K i for external Ca2+ blockage, frog, +80 mV, ref Dzeja et al. 1999) is given as roughly 2000 µM, the Ki ([1]; read-out: K i for external Ca2+ blockage, frog, −70 mV, ref Dzeja et al. 1999) is given as 265 µM and the Ki [2] is given as 1500 ± 400 µM.

In the case of `Nc1nc2c(ncn2[C@@H]2O[C@@H]3COP(=O)(O)O[C@H]3[C@H]2O)c(=O)[nH]1` [cGMP], the “P max (+80 mV)” value [3] is reported as 0.985 ± 0.007, the “P max (−80 mV)” value [3] is reported as 0.987 ± 0.007 and the “L, equilibrium gating constant” value ([3]; allosteric model fit, mean ± SD) is reported as 66 ± 15. For the same molecule, the “n(−80 mV), Hill coefficient” value ([4]; cGMP) was 2.6 ± 0.4, the “I(−80 mV)/I(+80 mV)” value ([4]; cGMP-gated current) was 1.30 ± 0.10 and the EC50 ([4]; read-out: K 1/2, cGMP, +80 mV) was 4.8 ± 1.1 µM. For the same molecule, the EC50 ([4]; read-out: K 1/2, cGMP, −80 mV) was 4.9 ± 1.1 µM, the EC50 ([4]; read-out: K 1/2,cG, −80 mV, single patch, Fig. 1 fit) was 4.5 µM and the “n cG” value ([4]; −80 mV, single patch, Fig. 1 fit) was 2.7. For the same molecule, the “P max (+80 mV)” value ([5]; cGMP) was 0.77 ± 0.08, the “P max (−80 mV)” value ([5]; cGMP) was 0.79 ± 0.06 and the “L, equilibrium gating constant” value ([5]; cGMP, allosteric model fit, mean ± SD) was 5.2 ± 1.3. It also gave an EC50 ([5]; read-out: K 1/2 (single-channel open probability), cGMP, −80 mV, average) of 14 ± 5 µM, an EC50 ([5]; read-out: K 1/2,cG, −80 mV, single patch, Fig. 2 fit) of 11.6 µM and a P closed [6, 7] of 0.765. The “P o,high” value [6, 7] was 0.015, the P closed [6, 8] was 0.01 and the “P o,high” value [6, 8] was 0.065. For the same molecule, the “P o,low” value [6, 8] was 0.925, the “P max (+80 mV)” value [6, 9] was 0.10 ± 0.07 and the “P max (−80 mV)” value [6, 9] was 0.04 ± 0.01. For the same molecule, the “P max (+80 mV)” value ([6]; low level of current) was 0.87 ± 0.02 and the “P max (−80 mV)” value ([6]; low level of current) was 0.96 ± 0.01.
